In paper PMC10461100, “Transcuticular calcium imaging as a tool for the functional study of insect odorant receptors” (Frontiers in Molecular Neuroscience, 2023):

Columns and labels:
SlitOR6 = target: T1, SlitOR6 (Spodoptera littoralis, UniProt I6LJY9); test: transcuticular calcium imaging (GCaMP6m), dose-response; conditions: volatile stimulus; dose loaded on filter paper (in hexane), not a concentration; in vivo fly antenna; 1 s puff
T1 construct: gene OR6; full-length UAS transgene in Drosophila melanogaster at1 trichoid neurons in place of DmelOR67d; endogenous Drosophila Orco; GCaMP6m reporter co-expressed; with Odorant receptor coreceptor (endogenous, Drosophila melanogaster)
T1 sequence (I6LJY9 1-432): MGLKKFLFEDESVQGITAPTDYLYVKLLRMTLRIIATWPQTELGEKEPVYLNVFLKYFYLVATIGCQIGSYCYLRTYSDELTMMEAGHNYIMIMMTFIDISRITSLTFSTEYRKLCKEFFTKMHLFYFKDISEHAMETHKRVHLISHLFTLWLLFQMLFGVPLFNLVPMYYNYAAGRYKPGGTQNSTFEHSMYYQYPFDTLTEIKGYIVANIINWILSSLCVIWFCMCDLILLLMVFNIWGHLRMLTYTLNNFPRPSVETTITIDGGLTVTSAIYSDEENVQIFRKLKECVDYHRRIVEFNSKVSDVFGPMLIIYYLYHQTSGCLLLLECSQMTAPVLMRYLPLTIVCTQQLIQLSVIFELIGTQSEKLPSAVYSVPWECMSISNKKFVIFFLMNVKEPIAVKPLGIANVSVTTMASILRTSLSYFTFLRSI
T1 sequence (Q9VNB5 1-486 partner): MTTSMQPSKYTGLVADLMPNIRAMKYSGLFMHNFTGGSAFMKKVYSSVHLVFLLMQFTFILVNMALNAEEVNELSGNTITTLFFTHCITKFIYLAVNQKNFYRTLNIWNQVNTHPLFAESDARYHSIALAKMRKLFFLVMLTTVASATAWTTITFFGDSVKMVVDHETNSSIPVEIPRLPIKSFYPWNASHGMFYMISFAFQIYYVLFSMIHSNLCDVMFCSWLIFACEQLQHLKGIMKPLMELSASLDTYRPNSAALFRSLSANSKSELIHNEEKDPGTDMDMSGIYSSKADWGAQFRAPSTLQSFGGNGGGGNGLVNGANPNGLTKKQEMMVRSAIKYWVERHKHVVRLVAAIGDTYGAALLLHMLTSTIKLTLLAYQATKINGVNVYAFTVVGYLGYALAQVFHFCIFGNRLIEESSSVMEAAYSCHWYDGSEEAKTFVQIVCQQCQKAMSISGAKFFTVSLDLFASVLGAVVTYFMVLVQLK

SlitOR29 = system: T2, SlitOR29; test: transcuticular calcium imaging (GCaMP6s), dose-response; parameters: species or system Spodoptera littoralis; conditions: volatile stimulus; dose loaded on filter paper (in mineral oil), not a concentration; in vivo fly antenna; 1 s puff
T2 construct: full-length UAS transgene in Drosophila melanogaster ab3A basiconic neurons in place of DmelOR22a/b; endogenous Drosophila Orco; GCaMP6s reporter co-expressed; with Odorant receptor coreceptor (endogenous, Drosophila melanogaster)

Row | SMILES | EC50 (SlitOR6) | EC50 (SlitOR29)
1 | C/C=C/C/C=C\CCCCCCCCOC(C)=O [(Z,E)-9,12-tetradecadienyl acetate] | 0.96 ± 0.14 µg | –
2 | C=C/C(C)=C/CC=C(C)C [(E)-ocimene] | – | 1.27 ± 0.37 µg
3 | CC/C=C\CCOC(C)=O [(Z)-3-hexenyl acetate] | – | 11.52 ± 0.70 µg
